Measured values reported in patent US20150175545A1, “Preparation Method of Fluoro-Substituted Deuterated Diphenylurea” (SUZHOU ZELGEN BIOPHARMACEUTICAL CO., LTD, priority 2012, published 2015).
Several values for one entry are separate records, joined by “and”; a condition that tells them apart may be missing. Equal values may be shown once. Read-outs that look alike come from different tables or passages of the source.

Legend:
[1] = Pharmacokinetic evaluation of CM4306, CM4308 and CM4309 in rats (mixed solution, intragastric); format: in vivo, SD rats; details: 4 mg/kg intragastric, mixed solution in PEG400, plasma; for MRT inf: read-out: MRT(0-∞)
Description: Blood samples were collected at 0.25, 0.5, 1.0, 2.0, 3.0, 5.0, 7.0, 9.0, 24, 36, 48 and 72 h after the administration.

[2] = target: c-Kit protein tyrosine kinase (Homo sapiens, UniProt P10721); assay: ELISA inhibition of c-Kit protein tyrosine kinase at the molecular level; format: biochemical; details: for results (inhibition efficacy): c-Kit and PDGFR-β, efficacy if inhibition rate at 10^-5 mol/L greater than 50%
Chain of c-Kit protein tyrosine kinase (P10721 26-976): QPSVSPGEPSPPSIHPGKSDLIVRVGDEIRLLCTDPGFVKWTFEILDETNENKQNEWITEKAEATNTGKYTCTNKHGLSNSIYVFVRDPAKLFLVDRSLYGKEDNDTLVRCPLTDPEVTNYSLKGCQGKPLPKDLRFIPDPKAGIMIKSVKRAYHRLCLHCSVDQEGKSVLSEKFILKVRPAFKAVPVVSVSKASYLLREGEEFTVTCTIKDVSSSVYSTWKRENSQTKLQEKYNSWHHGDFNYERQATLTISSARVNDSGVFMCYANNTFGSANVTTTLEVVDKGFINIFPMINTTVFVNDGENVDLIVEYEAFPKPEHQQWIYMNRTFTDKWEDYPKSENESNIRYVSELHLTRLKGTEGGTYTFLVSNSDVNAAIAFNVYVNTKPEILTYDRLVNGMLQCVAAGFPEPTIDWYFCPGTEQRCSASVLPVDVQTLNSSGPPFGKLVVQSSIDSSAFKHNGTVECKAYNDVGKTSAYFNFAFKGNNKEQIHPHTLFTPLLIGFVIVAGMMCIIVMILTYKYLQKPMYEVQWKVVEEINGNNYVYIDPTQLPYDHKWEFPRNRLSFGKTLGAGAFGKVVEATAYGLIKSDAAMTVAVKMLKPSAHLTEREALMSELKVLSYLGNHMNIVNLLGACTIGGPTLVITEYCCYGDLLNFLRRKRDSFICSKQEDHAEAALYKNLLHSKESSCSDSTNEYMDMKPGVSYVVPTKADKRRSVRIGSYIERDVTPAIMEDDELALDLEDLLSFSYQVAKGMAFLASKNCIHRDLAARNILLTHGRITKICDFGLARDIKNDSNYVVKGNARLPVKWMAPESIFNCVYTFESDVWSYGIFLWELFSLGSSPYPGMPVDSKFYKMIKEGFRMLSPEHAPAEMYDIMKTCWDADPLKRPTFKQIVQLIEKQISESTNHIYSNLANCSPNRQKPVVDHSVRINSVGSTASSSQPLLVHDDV
Description: (§1) The activity of diphenylurea compounds for inhibiting c-Kit, PDGFR-β protein tyrosine kinases on molecular level was tested by Enzyme-Linked Immunosorbent Assay (ELISA).
(§2) Reacting substrate Poly(Glu,Tyr)4:1 was bought from Sigma; Monoclonal antibody against tyrosine phosphate PY99 was bought from Santa Cruz; Horseradish peroxidase labeled sheep-against-rat IgG was bought from Calbiochem; ATP, DTT, OPD were bought from Amresco; microplates were bought from Corning; Su11248 was bought from Merk.
(§3) See Roskoski, R., Jr. Sunitinib: a VEGF and PDGF receptor protein kinase and angiogenesis inhibitor. Biochem Biophys Res Commun, 356: 323-328, 2007. The details comprise:
Kinase reaction substrate Poly(Glu,Tyr)4:1 was diluted to 20 μg/ml by potassium-free PBS, and the microplates were coated. Diphenylurea samples to be tested were added in the wells of the coated microplates (the samples to be tested were made from the stock solution of 10^−2 M in DMSO, and diluted to the desired concentration with reaction buffer before use. The resulted solution was added into the wells to get the final concentration of 10^−5 mol/L in 100 μL reaction system). At the same time, the positive control compound Su11248 was added to the positive control wells.
ATP solution diluted with reaction buffer (the final concentration of ATP is 5 μM) and tyrosine kinase for testing diluted with reaction buffer were added in turn. The total volume of reaction system was 100 μL. At the same time, the negative control wells and the control wells without enzyme were set up.
The reaction system was placed in a wet box and shaked for 1 h at 37° C. by shaking shielding from light. After the reaction was completed, plates were washed three times with T-PBS. Antibody PY99 was added (100 μL/well), and plates were shaked for 30 min at 37° C. After the reaction was completed, the plates were washed with three times T-PBS. Horseradish peroxidase labeled sheep-against-rat IgG was added (100 μL/well), and the plates were shaked for 30 min at 37° C. After the reaction was completed, the plates were washed with T-PBS for three times. OPD developing liquid was added (100 μL/well), and reacted for 1-10 min at room temperature shielding from light. 50 μL of 2 M H2SO4 was added to quench the reaction. A492 value was determined using wavelength-adjustable microplates reader VERSAmax.
(§4) The inhibition ratio of samples can be calculated by the following formula: […]

[3] = system: human liver cancer cell SMMC-7721; assay: Nude mice xenograft model inoculated with SMMC-7721 cells, tumor growth inhibition; format: in vivo; details: 30 mg/kg intragastric every day for 2 weeks; for relative tumor increment rate T/C %: effective if T/C ≦40% and p<0.05
Description: The establishment of tumor-bearing nude mice xenograft model: SMMC-7721 cells in logarithmic growth period were cultured. After cell number was counted, the cells were suspended in 1×PBS, and the concentration of the cell suspension was adjusted to 1.5×10^7/ml. The tumor cells were inoculated (s.c.) 3×10^6/0.2 ml/mice under the right armpit of nude mice. 45 nude mice were inoculated in total. When the tumor size reached 30-130 mm^3, 34 mice were randomly divided into different groups. […] Administration of testing drugs was started. […] Observation continued upon the withdraw till the tumor volume was larger than 2000 mm^3. The weight of animals and tumor size were tested twice a week during the experiment. […] The formula for calculating the tumor volume (TV) is: TV=a×b^2/2, wherein a and b independently and respectively represent the length and the breadth of the tumor. The formula for calculating the relative tumor volume (RTV) is: RTV=Vt/V0, wherein V0 is the tumor volume at the beginning of the administration, and Vt is […] when measured. The index for evaluating the antitumor activity is relative tumor increment rate T/C (%), and the calculation formula is: T/C (%)=(TRTV/CRTV)×100%, wherein, TRTV is the RTV for the treatment group, and CRTV is the RTV for the negative control group. Evaluation standard for efficacy: it is effective if the relative tumor increment rate T/C (%) is ≦40% and p<0.05 by statistics analysis.

[4] = target: PDGFR-β protein tyrosine kinase (Homo sapiens, UniProt P09619); assay: ELISA inhibition of PDGFR-β protein tyrosine kinase at the molecular level; format: biochemical; details: 10 μM compound, ATP 5 μM, mean of duplicate experiments
Chain of PDGFR-β protein tyrosine kinase (P09619 33-1106): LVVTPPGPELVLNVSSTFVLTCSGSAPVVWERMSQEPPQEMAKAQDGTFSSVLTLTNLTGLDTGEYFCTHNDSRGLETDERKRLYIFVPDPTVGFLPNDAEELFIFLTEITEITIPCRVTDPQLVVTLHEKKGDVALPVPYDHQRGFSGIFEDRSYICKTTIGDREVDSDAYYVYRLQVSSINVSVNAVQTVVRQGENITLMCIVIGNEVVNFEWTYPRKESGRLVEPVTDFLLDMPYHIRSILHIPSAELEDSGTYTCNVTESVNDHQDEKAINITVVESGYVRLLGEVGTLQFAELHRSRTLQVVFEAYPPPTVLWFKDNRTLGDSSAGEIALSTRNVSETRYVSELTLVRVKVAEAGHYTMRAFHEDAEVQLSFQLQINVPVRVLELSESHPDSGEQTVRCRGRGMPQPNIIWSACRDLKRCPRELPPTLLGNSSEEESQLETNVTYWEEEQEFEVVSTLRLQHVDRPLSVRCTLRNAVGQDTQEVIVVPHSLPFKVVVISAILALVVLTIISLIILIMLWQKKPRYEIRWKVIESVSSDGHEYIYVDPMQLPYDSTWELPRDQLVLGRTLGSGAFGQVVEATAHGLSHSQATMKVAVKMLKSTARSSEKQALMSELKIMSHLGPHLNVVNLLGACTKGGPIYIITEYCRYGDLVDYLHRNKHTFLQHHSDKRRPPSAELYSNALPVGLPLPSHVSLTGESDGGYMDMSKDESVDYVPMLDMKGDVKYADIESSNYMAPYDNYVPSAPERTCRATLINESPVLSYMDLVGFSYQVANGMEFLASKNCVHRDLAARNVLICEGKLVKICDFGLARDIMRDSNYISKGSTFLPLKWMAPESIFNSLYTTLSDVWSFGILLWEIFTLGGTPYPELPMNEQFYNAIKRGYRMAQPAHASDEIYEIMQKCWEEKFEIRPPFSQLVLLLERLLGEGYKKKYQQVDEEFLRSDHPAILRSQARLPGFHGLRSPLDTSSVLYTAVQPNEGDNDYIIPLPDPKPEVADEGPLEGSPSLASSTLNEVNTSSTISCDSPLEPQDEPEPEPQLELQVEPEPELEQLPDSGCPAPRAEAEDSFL
Description: as §1, §2, §3
Kinase reaction substrate Poly(Glu,Tyr)4:1 was diluted to 20 μg/ml by potassium-free PBS, and the microplates were coated. […]
The reaction system was placed in a wet box and shaked for 1 h at 37° C. by shaking shielding from light. […] A492 value was determined using wavelength-adjustable microplates reader VERSAmax.
as §4

[5] = male, SD, rat, plasma, po, 4 mg/kg, individual rat
[6] = male, SD, rat, plasma, po, 4 mg/kg, mean value of 3 rats
[7] = male, SD, rat, plasma, po, 4 mg/kg, mean value of 3 rats, read-out: Cmax
[8] = male, SD, rat, plasma, po, 4 mg/kg, mean value of 3 rats, read-out: Tmax

Row | AUC(0-∞) ([1]; individual rat, 4 mg/kg) | Cmax ([1]; individual rat, 4 mg/kg) | MRT(0-∞) ([1]; individual rat, 4 mg/kg) | Tmax ([1]; individual rat, 4 mg/kg) | AUC(0-inf) [1, 5] | half-life [1, 5] | MRT inf [1, 5] | AUC(0-inf) [1, 6] | Cmax [1, 7] | MRT inf [1, 6] | Tmax [1, 8] | AUC(0-t) ([1]; mean value of 3 rats) | results (inhibition efficacy) [2] | SMILES | AUC(0-t) ([1]; individual rat, 4 mg/kg) | T1/2 ([1]; individual rat, 4 mg/kg) | half-life [1, 6] | relative tumor increment rate T/C % [3] | other results
1 | 41544 ng·h/mL and 25008 ng·h/mL | 642 ng/mL and 1568 ng/mL and 651 ng/mL | 23.2 h and 23.9 h | 8.0 h and 2.0 h | 24600 ng·h/mL | 14.8 h | 28.2 h | 30400 ng·h/mL | 954 ng/mL | 25.1 h | 6 h | 29414 ng·h/mL | effective | CNC(=O)c1cc(Oc2ccc(NC(=O)Nc3ccc(Cl)c(C(F)(F)F)c3)cc2)ccn1 [CM4306, 4-(4-(3-(4-chloro-3-(trifluoromethyl)phenyl]ureido)-phenoxy)-(N-methyl)picolinamide] | 23431 ng·h/mL and 40239 ng·h/mL and 24571 ng·h/mL |  |  |  | 
2 | 9541 ng·h/mL and 18973 ng·h/mL | 378 ng/mL and 279 ng/mL and 817 ng/mL | 24.1 h and 21.7 h | 8.0 h and 6.0 h and 1.0 h | 11600 ng·h/mL | 10.1 h | 21 h | 13400 ng·h/mL | 491 ng/mL | 22.2 h | 5 h | 13119 ng·h/mL | effective | CNC(=O)c1cc(Oc2ccc(NC(=O)Nc3ccc(Cl)c(C(F)(F)F)c3)c(F)c2)ccn1 [CM4308, 4-(4-(3-(4-chloro-3-(trifluoromethyl)phenyl]ureido)-3-fluorophenoxy)-N-methylpicolinamide] | 11473 ng·h/mL and 9327 ng·h/mL and 18558 ng·h/mL | 11.7 h and 11.4 h | 11.1 h | 51.6% | 
3 |  |  |  |  |  |  |  |  |  |  |  |  | effective | CCN(CC)CCNC(=O)c1c(C)[nH]c(/C=C2\C(=O)Nc3ccc(F)cc32)c1C [Su11248] |  |  |  |  | % Inhibition ratio for inhibiting tyrosine kinase at 10 μM, c-Kit mean value ([2]; 10 μM compound, ATP 5 μM, mean of duplicate experiments): 90.2%; % Inhibition ratio for inhibiting tyrosine kinase at 10 μM, PDGFR-β mean value [4]: 93.9%

Row | SMILES | AUC(0-∞) ([1]; individual rat, 4 mg/kg) | Cmax ([1]; individual rat, 4 mg/kg) | MRT(0-∞) ([1]; individual rat, 4 mg/kg) | Tmax ([1]; individual rat, 4 mg/kg) | AUC(0-inf) [1, 5] | half-life [1, 5] | MRT inf [1, 5] | AUC(0-inf) [1, 6] | Cmax [1, 7] | MRT inf [1, 6] | Tmax [1, 8] | AUC(0-t) ([1]; mean value of 3 rats) | results (inhibition efficacy) [2] | AUC(0-t) ([1]; individual rat, 4 mg/kg) | T1/2 ([1]; individual rat, 4 mg/kg) | half-life [1, 6] | relative tumor increment rate T/C % [3] | other results
4 | [2H]C([2H])([2H])NC(=O)c1cc(Oc2ccc(NC(=O)Nc3ccc(Cl)c(C(F)(F)F)c3)c(F)c2)ccn1 [CM4309, 4-(4-(3-(4-chloro-3-(trifluoromethyl)phenyl]ureido)-3-fluorophenoxy)-N-(methyl-d3)picolinamide] | 41702 ng·h/mL and 28899 ng·h/mL | 933 ng/mL and 530 ng/mL | 39.1 h and 36.7 h | 24.0 h and 1.0 h and 8.0 h | 27400 ng·h/mL | 26.7 h | 45.9 h | 32700 ng·h/mL | 644 ng/mL | 40.6 h | 11 h | 27804 ng·h/mL | effective | 22220 ng·h/mL and 35592 ng·h/mL and 25601 ng·h/mL | 23.4 h and 20.9 h | 23.7 h | 27.0% and < 40% | Cmax ([1]; male, SD, rat, plasma, po, 4 mg/kg, individual rat, read-out: Cmax): 470 ng/mL; effect on tumor growth (tumor volume vs control group) ([3]; p<0.01 vs control group): significant effect in inhibiting tumor growth
